# Measurements as given in patent US5840895A, “Triazole intermediates for tricyclic benzazepine and benzothiazepine derivatives” (Meiji Seika Kabushiki Kaisha, priority 1993, dated 1998).
# pIC50: −log10 of the molar value. Where two headings read alike, the source gives them in different places.
# Legend:
# [1] = test system: allergic edema reaction at paw; assay: Test for suppressing immediate and delayed allergic reaction (allergic edema reaction at paw, DNP-OA); type: in vivo, rat (male Wister); details: Rattus norvegicus; for inhibition in vivo at 10 mg/kg / inhibition in vivo at 30 mg/kg: oral; for inhibition in vivo at 30 mg/kg: dose: 30 mg/kg of body weight
# Method: Test for suppressing immediate and delayed allergic reaction
# 1×10^10 of inviable pertussis and 1 mg of dinitrophenylated ovalbumin (DNP-OA) were administered subcutaneously to the three paws except the right hind paw of male Wister rats having a body weight of 200 g. After 10 days, 5 μg of DNP-OA was further administered subcutaneously to the right hind paw of the animals to induce the allergic edema reaction at paw. The allergy suppressing effect of the test compounds was examined with reference to the edema volumes after 30 minutes and 8 hours of the induction of the allergic reaction as the immediate and delayed allergic reactions, respectively.
# […] On the other hand, only a solution of 0.25% Tween 80 was orally administered to rats as the untreated control, and 100 mg/kg of sodium chromoglycate subcutaneously or orally to rats as the positive control.
# The rate of suppressing the allergic edema reaction at paw was calculated from the following equation.
# Suppression rate of the allergic edema reaction at paw
# A is an average edema volume in the control, and
# B is an average edema volume in the drug treated group.
# [2] = cited from earlier work
# [3] = test system: histamine releasing reaction; assay: Test of suppressing histamine releasing reaction (abdominal cavity cells of rats sensitised with anti-DNP-As serum, stimulated with DNP-As); type: cell-based, rat (male Wister); details: Rattus norvegicus; cells 10^5 cell/ml stimulated with 1 μg/ml DNP-As; test compounds 10^-5 -10^-10 M; read-out: IC50 (suppression of histamine releasing reaction)
# Method: Test of suppressing histamine releasing reaction
# Rat anti-dinitrophenylated ascaris protein (referred to hereinafter as DNP-As) serum was prepared according to the method described by Tada, T. and Okumura, K., J. Immun., 106 (4), 1971. Briefly, 1×10^10 of inviable pertussis and 1 mg of DNP-As were administered subcutaneously to the paw of female Brown Norway rats having a body weight of 200 g. After five days, 0.5 mg of DNP-As was further administered intramuscularly to the rear of the animals. Blood samples were taken after three days of the administration to prepare anti-serum.
# A 1 ml portion of the serum diluted four times with physiological saline was administered intraperitoneally to male Wister rats. After two days, abdominal cavity was rinsed with phosphate buffer to recover the cells within the abdominal cavity. After the cell concentration was adjusted to 10^5 cell/ml, the cells were stimulated with 1 μg/ml of DNP-As. The amount of histamine released into the supernatant was measured according to the method described by Shore, P. A., Burkhalter, A. H. and Chon, V. H. Jr., J. Pharm. Exp. Ther., 127, 182-186 (1959).
# A dose for suppressing 50% of the histamine releasing reaction, i.e., IC50 value, was calculated from the amounts of histamine released in the group treated with the test compounds in the molar concentrations (M) of 10^-5 -10^-10 and in the control group. The IC50 value as the suppressing effect of the drugs is shown in Table 6 with the IC50 value of sodium chromoglycic acid selected as the control compound.
# [4] = 0.5 h, edema volume 30 minutes after induction, read-out: Suppressing Rate, Immediate Reaction
# [5] = edema volume 8 hours after induction, read-out: Suppressing Rate, Slow reaction
SMILES,pIC50 [3],"inhibition in vivo at 10 mg/kg [1, 4]","inhibition in vivo at 10 mg/kg [1, 5]",further results
"O=C(O)c1cc(=O)c2c(OCC(O)COc3cccc4oc(C(=O)O)cc(=O)c34)cccc2o1 [DSCG, sodium chromoglycate, reference compound]",–,–,–,"inhibition in vivo at 100 mg/kg ([1]; po, 0.5 h, orally, 30 minutes after induction (positive control), read-out: Suppressing Rate, Immediate Reaction): 16%; inhibition in vivo at 100 mg/kg ([1]; po, orally, 8 hours after induction (positive control), read-out: Suppressing Rate, Slow reaction): 20%; inhibition in vivo at 100 mg/kg ([1]; sc, 0.5 h, subcutaneously, 30 minutes after induction (positive control), read-out: Suppressing Rate, Immediate Reaction): 75%; inhibition in vivo at 100 mg/kg ([1]; sc, subcutaneously, 8 hours after induction (positive control), read-out: Suppressing Rate, Slow reaction): 53%; effectiveness on oral administration [2]: no effectiveness"
"CCc1ccc2c(=O)c3[nH]nnc3c(=O)[nH]c2c1 [Example 12, 7-ethyl-4(5H),10-dioxo-1H-1,2,3-triazolo[4,5-c][l]benzazepine]",8.21,59%,53%,–
"CCOc1ccc2c(=O)c3[nH]nnc3c(=O)[nH]c2c1 [Example 27, 7-ethoxy-4(5H),10-dioxo-1H-1,2,3-triazolo[4,5-c][l]benzazepine]",8.07,48%,55%,–
"COc1cc2[nH]c(=O)c3nn[nH]c3c(=O)c2cc1OC [Example 43, 7,8-dimethoxy-4(5H),10-dioxo-1H-1,2,3-triazolo[4,5-c][l]benzazepine]",8.85,59%,53%,–
"CC(=O)/C=C/c1ccc2c(=O)c3[nH]nnc3c(=O)[nH]c2c1 [Example 20, 7-(3-oxo-(E)-butenyl)-4(5H),10-dioxo-1H-1,2,3-triazolo[4,5-c][l]benzazepine]",8.54,63%,51%,–
"Cc1cccc2c(=O)c3[nH]nnc3c(=O)[nH]c12 [Example 3, 6-methyl-4(5H),10-dioxo-1H-1,2,3-triazolo[4,5-c][l]benzazepine]",7.43,–,–,"inhibition in vivo at 30 mg/kg ([1]; 0.5 h, 30 minutes after induction, read-out: Suppressing Rate, Immediate Reaction): 46.6%; inhibition in vivo at 30 mg/kg ([1]; 8 hours after induction, read-out: Suppressing Rate, Slow reaction): 24.2%"
"COc1ccc(C(=O)COc2ccc3[nH]c(=O)c4nn[nH]c4c(=O)c3c2)cc1 [Example 84, 8-(4-methoxyphenacyloxy)-4(5H),10-dioxo-1H-1,2,3-triazolo[4,5-c][l]benzazepine]",8.41,48%,40%,–
